Target: truncated form of human NaV 1.8 with full channel activity (Homo sapiens, UniProt Q9Y5Y9)
Assay: E-VIPR Assay Method A for detecting and measuring Nav inhibition (HEK cells, membrane potential FRET dyes, electrical stimulation)
Type: cell-based
Settings: HEK cells expressing human NaV 1.8, HS (human serum) in compound loading buffer, 11 point dose response, top dose 3 μM, Table 20, read-out: Nav 1.8 MedChem Optical Assay EVIPR Assay Method A HS IC50
How it was run: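 HEK cells expressing truncated human NaV1.8, loaded with CC2-DMPE/DiSBAC6(3) FRET dyes, incubated 30 min at room temp with compound (0.625% DMSO), then electrically stimulated (1.25 A biphasic, 10 Hz, 10 s). Inhibition from 460/580 nm ratio Rf/Ri, normalised to positive and DMSO controls.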

Sequence of truncated form of human NaV 1.8 with full channel activity (Q9Y5Y9 126-1722 limits assumed): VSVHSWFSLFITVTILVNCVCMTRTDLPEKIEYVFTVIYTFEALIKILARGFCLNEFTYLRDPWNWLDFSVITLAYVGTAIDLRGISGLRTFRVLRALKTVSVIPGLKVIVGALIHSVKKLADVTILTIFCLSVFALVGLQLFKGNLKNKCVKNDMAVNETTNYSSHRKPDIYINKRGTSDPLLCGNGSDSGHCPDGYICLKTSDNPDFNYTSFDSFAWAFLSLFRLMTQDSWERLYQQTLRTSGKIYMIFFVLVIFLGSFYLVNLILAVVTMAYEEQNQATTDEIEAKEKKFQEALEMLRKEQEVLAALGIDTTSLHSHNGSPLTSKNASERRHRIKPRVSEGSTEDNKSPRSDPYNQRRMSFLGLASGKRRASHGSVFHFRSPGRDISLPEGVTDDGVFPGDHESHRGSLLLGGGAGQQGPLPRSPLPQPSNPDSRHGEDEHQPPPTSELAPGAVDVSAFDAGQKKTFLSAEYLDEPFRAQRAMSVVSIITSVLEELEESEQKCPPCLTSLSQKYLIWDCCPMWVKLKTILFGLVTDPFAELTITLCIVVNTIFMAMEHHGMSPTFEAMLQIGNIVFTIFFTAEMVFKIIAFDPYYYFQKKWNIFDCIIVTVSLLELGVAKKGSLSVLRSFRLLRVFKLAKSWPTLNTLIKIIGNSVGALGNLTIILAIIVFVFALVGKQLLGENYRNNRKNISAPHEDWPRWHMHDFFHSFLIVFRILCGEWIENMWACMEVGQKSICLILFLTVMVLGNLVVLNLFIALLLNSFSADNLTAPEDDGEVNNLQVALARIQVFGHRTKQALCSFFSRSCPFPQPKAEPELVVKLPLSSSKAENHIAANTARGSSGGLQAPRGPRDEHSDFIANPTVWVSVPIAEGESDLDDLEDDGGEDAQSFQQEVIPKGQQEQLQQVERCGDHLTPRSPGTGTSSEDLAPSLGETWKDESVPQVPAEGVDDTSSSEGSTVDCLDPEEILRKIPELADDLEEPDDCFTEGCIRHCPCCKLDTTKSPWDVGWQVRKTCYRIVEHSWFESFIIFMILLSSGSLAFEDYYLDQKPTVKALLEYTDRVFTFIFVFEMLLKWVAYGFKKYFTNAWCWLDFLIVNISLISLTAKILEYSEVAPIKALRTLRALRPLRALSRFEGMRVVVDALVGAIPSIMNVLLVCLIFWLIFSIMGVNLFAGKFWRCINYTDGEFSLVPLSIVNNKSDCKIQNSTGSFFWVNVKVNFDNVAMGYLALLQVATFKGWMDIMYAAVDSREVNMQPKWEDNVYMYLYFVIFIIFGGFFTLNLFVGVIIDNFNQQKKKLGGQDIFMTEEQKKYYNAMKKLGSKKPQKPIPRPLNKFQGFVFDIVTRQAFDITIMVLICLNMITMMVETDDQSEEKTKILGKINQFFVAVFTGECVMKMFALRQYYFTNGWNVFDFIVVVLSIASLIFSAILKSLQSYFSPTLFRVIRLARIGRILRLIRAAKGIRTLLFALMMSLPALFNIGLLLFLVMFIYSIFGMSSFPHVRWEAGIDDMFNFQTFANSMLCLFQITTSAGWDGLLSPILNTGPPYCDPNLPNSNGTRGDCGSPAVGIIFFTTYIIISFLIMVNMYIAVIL

Row | IC50 | SMILES
1 | 4 nM | COc1cc(OC(F)(F)F)ccc1Oc1cnc(C(F)(F)F)c(F)c1C(=O)Nc1ccnc(C(N)=O)c1 [Compound 12, N-(2-Carbamoyl-4-pyridyl)-3-fluoro-5-[2-methoxy-4-(trifluoromethoxy)phenoxy]-2-(trifluoromethyl)pyridine-4-carboxamide]
2 | 3 nM | Cc1cc(OC(F)(F)F)ccc1Oc1ccc(C(F)(F)F)c(F)c1C(=O)Nc1ccc(F)c(C(N)=O)c1 [Compound 10, N-(3-carbamoyl-4-fluoro-phenyl)-2-fluoro-6-[2-methyl-4-(trifluoromethoxy)phenoxy]-3-(trifluoromethyl)benzamide]
3 | 10 nM | COc1cc(OC(F)(F)F)ccc1Oc1ccc(C(F)(F)C(F)(F)F)cc1C(=O)Nc1ccc(F)c(C(N)=O)c1 [Compound 19, N-(3-carbamoyl-4-fluoro-phenyl)-2-[2-methoxy-4-(trifluoromethoxy)phenoxy]-5-(1,1,2,2,2-pentafluoroethyl)benzamide]

Same assay, conditions: HEK cells expressing human NaV 1.8, HS (human serum) in compound loading buffer, 11 point dose response, top dose 3 μM, Table 20A, read-out: Nav 1.8 MedChem Optical Assay EVIPR Assay Method A HS IC50

Row | IC50 | SMILES
4 | 16 nM | COc1cc(OC(F)(F)F)ccc1Oc1ccc(C(F)(F)F)c(F)c1C(=O)Nc1ccc(C(N)=O)nc1 [Compound 193, 5-[[2-fluoro-6-[2-methoxy-4-(trifluoromethoxy)phenoxy]-3-(trifluoromethyl)benzoyl]amino]pyridine-2-carboxamide]
5 | 170 nM | COc1c(C(F)(F)F)ncc(Oc2ccc(OC(F)(F)F)cc2)c1C(=O)Nc1cc(C(N)=O)ncc1C [Compound 131, N-(2-Carbamoyl-5-methyl-4-pyridyl)-3-methoxy-5-[4-(trifluoromethoxy)phenoxy]-2-(trifluoromethyl)pyridine-4-carboxamide]
6 | 320 nM | NC(=O)c1cc(NC(=O)c2c(Oc3ccc(OC(F)(F)F)cc3)ccc(C(F)(F)F)c2F)ccc1O [Compound 85, N-(3-carbamoyl-4-hydroxy-phenyl)-2-fluoro-6-[4-(trifluoromethoxy)phenoxy]-3-(trifluoromethyl)benzamide]
7 | 69 nM | COc1cc(OC(F)(F)F)ccc1Oc1ccc(F)c(Cl)c1C(=O)Nc1cc(C(N)=O)ncc1C [Compound 129, 4-[[2-Chloro-3-fluoro-6-[2-methoxy-4-(trifluoromethoxy)phenoxy]benzoyl]amino]-5-methyl-pyridine-2-carboxamide]
8 | 17 nM | COc1cc(OC(F)(F)F)ccc1Oc1ccc(C(F)(F)F)c(F)c1C(=O)Nc1cc(C(N)=O)ncc1Cl [Compound 152, 5-Chloro-4-[[2-fluoro-6-[2-methoxy-4-(trifluoromethoxy)phenoxy]-3-(trifluoromethyl)benzoyl]amino]pyridine-2-carboxamide]
9 | 18 nM | COc1cc(OC(F)(F)F)ccc1Oc1ccc(C(F)(F)F)c(OC)c1C(=O)Nc1cc(C(N)=O)ncc1F [Compound 128, 5-Fluoro-4-(2-methoxy-6-(2-methoxy-4-(trifluoromethoxy)phenoxy)-3-(trifluoromethyl)benzamido)picolinamide]
10 | 520 nM | CC(C)c1cc(Oc2ccc(OC(F)(F)F)c(F)c2)c(C(=O)Nc2ccc(F)c(C(N)=O)c2)cn1 [Compound 33, N-(3-Carbamoyl-4-fluoro-phenyl)-4-[3-fluoro-4-(trifluoromethoxy)phenoxy]-6-isopropyl-pyridine-3-carboxamide]
11 | 42 nM | COc1nc(Cl)ccc1Oc1ccc(C(F)(F)F)c(F)c1C(=O)Nc1ccc(C(N)=O)c(F)c1 [Compound 67, N-(4-carbamoyl-3-fluoro-phenyl)-6-[(6-chloro-2-methoxy-3-pyridyl)oxy]-2-fluoro-3-(trifluoromethyl)benzamide]
12 | 5 nM | COc1cc(OC(F)(F)F)ccc1Oc1cnc(C(F)(F)F)c(OC)c1C(=O)Nc1ccnc(C(N)=O)c1 [Compound 166, N-(2-Carbamoyl-4-pyridyl)-3-methoxy-5-[2-methoxy-4-(trifluoromethoxy)phenoxy]-2-(trifluoromethyl)pyridine-4-carboxamide]
13 | 68 nM | NC(=O)c1cc(NC(=O)c2c(Oc3ccc(OC(F)(F)F)cc3)ccc(C(F)(F)F)c2F)ccc1Cl [Compound 134, N-(3-carbamoyl-4-chloro-phenyl)-2-fluoro-6-[4-(trifluoromethoxy)phenoxy]-3-(trifluoromethyl)benzamide]
14 | 2 nM | [2H]C([2H])([2H])Oc1c(Oc2ccc(C(F)(F)F)c(F)c2C(=O)Nc2cc(C(N)=O)ncc2C)ccc(OC(F)(F)F)c1F [Compound 227, 4-[[2-Fluoro-6-[3-fluoro-2-(trideuteriomethoxy)-4-(trifluoromethoxy)phenoxy]-3-(trifluoromethyl)benzoyl]amino]-5-methyl-pyridine-2-carboxamide]
15 | 38 nM | Cc1cc(OC(F)(F)F)ccc1Oc1ccc(C(F)(F)F)c(F)c1C(=O)Nc1ccc(C(N)=O)c(F)c1 [Compound 66, N-(4-carbamoyl-3-fluoro-phenyl)-2-fluoro-6-[2-methyl-4-(trifluoromethoxy)phenoxy]-3-(trifluoromethyl)benzamide]
16 | 560 nM | NC(=O)c1cc(NC(=O)c2cc(OC(F)(F)F)ccc2Oc2ccc(OC(F)(F)F)cc2)ccn1 [Compound 156, 4-[[5-(Trifluoromethoxy)-2-[4-(trifluoromethoxy)phenoxy]benzoyl]amino]pyridine-2-carboxamide]
17 | 44 nM | Cc1cnc(C(N)=O)cc1NC(=O)c1c(Oc2ccc(OC(F)(F)F)cc2)ccc(C(F)(F)F)c1F [Compound 242, 4-[[2-fluoro-6-[4-(trifluoromethoxy)phenoxy]-3-(trifluoromethyl)benzoyl]amino]-5-methyl-pyridine-2-carboxamide]
18 | 46 nM | COc1cc(OC(F)(F)F)ccc1Oc1cnc(C(F)(F)F)c(OC)c1C(=O)Nc1ccc(C(N)=O)nc1 [Compound 203, N-(6-Carbamoyl-3-pyridyl)-3-methoxy-5-[2-methoxy-4-(trifluoromethoxy)phenoxy]-2-(trifluoromethyl)pyridine-4-carboxamide]
19 | 85 nM | COc1cc(OC(F)(F)F)ccc1Oc1cc(C(F)(F)F)cc(F)c1C(=O)Nc1cc(C(N)=O)c(F)cc1C [Compound 139, 2-Fluoro-5-[[2-fluoro-6-[2-methoxy-4-(trifluoromethoxy)phenoxy]-4-(trifluoromethyl)benzoyl]amino]-4-methyl-benzamide]
20 | 410 nM | NC(=O)c1cc(NC(=O)c2c(Oc3ccc(OC(F)(F)F)cc3)cc(C(F)(F)F)cc2C(F)(F)F)ccn1 [Compound 160, 4-[[2-[4-(Trifluoromethoxy)phenoxy]-4,6-bis(trifluoromethyl)benzoyl]amino]pyridine-2-carboxamide]
21 | 17 nM | COc1cc(OC(F)(F)F)ccc1Oc1cc([C@@H]2C[C@H]2C)ncc1C(=O)Nc1ccc(F)c(C(N)=O)c1 (single isomer, unassigned) [Compound 114]
22 | 53 nM | NC(=O)c1cc(NC(=O)c2c(Oc3ccc(OC(F)(F)F)cc3)ccc(Cl)c2F)ccn1 [Compound 70, 4-[[3-Chloro-2-fluoro-6-[4-(trifluoromethoxy)phenoxy]benzoyl]amino]pyridine-2-carboxamide]
23 | 38 nM | NC(=O)c1cc(NC(=O)c2c(Oc3ccc(OC(F)(F)F)cc3)cnc(C(F)(F)F)c2F)ccn1 [Compound 61, N-(2-Carbamoyl-4-pyridyl)-3-fluoro-5-[4-(trifluoromethoxy)phenoxy]-2-(trifluoromethyl)pyridine-4-carboxamide]
24 | 88 nM | [2H]C([2H])([2H])Oc1cc(OC(F)(F)F)ccc1Oc1cc(OC(F)F)cc(F)c1C(=O)Nc1ccc(C(N)=O)nc1 [Compound 174, 5-[[4-(Difluoromethoxy)-2-fluoro-6-[2-(trideuteriomethoxy)-4-(trifluoromethoxy)phenoxy]benzoyl]amino]pyridine-2-carboxamide]
25 | 0.9 nM | COc1c(Oc2ccc(C(F)(F)F)c(F)c2C(=O)Nc2ccc(F)c(C(N)=O)c2)ccc(OC(F)(F)F)c1F [Compound 219, N-(3-Carbamoyl-4-fluoro-phenyl)-2-fluoro-6-[3-fluoro-2-methoxy-4-(trifluoromethoxy)phenoxy]-3-(trifluoromethyl)benzamide]
26 | 73 nM | Cc1cnc(C(N)=O)cc1NC(=O)c1c(Oc2ccc(OC(F)(F)F)cc2)ccc(Cl)c1F [Compound 244, 4-[[3-chloro-2-fluoro-6-[4-(trifluoromethoxy)phenoxy]benzoyl]amino]-5-methyl-pyridine-2-carboxamide]
27 | 3 nM | [2H]C([2H])([2H])Oc1c(Oc2cc(Cl)c(C([2H])([2H])[2H])c(F)c2C(=O)Nc2ccnc(C(N)=O)c2)ccc(OC(F)(F)F)c1F [Compound 222, 4-[[4-Chloro-2-fluoro-6-[3-fluoro-2-(trideuteriomethoxy)-4-(trifluoromethoxy)phenoxy]-3-(trideuteriomethyl)benzoyl]amino]pyridine-2-carboxamide]
28 | 54 nM | COc1cc(OC(F)(F)F)ccc1Oc1ccc(C(F)(F)F)c(F)c1C(=O)Nc1cccc(C(=O)N(C)C)c1 [Compound 96, N-[3-(dimethylcarbamoyl)phenyl]-2-fluoro-6-[2-methoxy-4-(trifluoromethoxy)phenoxy]-3-(trifluoromethyl)benzamide]
29 | 15 nM | CNC(=O)c1cccc(NC(=O)c2c(Oc3ccc(OC(F)(F)F)cc3OC)ccc(C(F)(F)F)c2F)c1 [Compound 98, 2-fluoro-6-[2-methoxy-4-(trifluoromethoxy)phenoxy]-N-[3-(methylcarbamoyl)phenyl]-3-(trifluoromethyl)benzamide]
30 | 200 nM | N#Cc1cc(F)ccc1Oc1ccc(C(F)(F)F)c(F)c1C(=O)Nc1ccc(F)c(C(N)=O)c1 [Compound 295, N-(3-carbamoyl-4-fluoro-phenyl)-6-(2-cyano-4-fluoro-phenoxy)-2-fluoro-3-(trifluoromethyl)benzamide]
31 | 890 nM | NC(=O)c1cc(NC(=O)c2c(Oc3ccc(F)cc3)cccc2C(F)(F)F)ccc1F [Compound 37, N-(3-Carbamoyl-4-fluoro-phenyl)-2-(4-fluorophenoxy)-6-(trifluoromethyl)benzamide]
